Data set [1] deals with human skin explants. The data set can be described thus: Intracellular ROS scavenging activity assay, HEV exposure. The note with it: HEV exposure 412 nm and 450 nm. It is filed as cell-based.
Procedure: Intracellular Reactive Oxygen Species (ROS) Scavenging Activity Assays were conducted on human skin explants from donors of skin Phototype II. The skin explants were treated with, a non-fluorescent probe, 2′, 7′-Dichlorofluorescein diacetate (DCFHDA). […] DCFH-DA is taken up by cells by passive diffusion and DCFH-DA is deacetylated by cellular esterases to non-fluorescent DCFH, which is trapped within cells. The fluorescent 2′, 7′-dichlorofluorescein (DCF) is generated upon enzymatic reduction and subsequent oxidation by ROS. Fluorescence was measured and correlates to the test item's ability to scavenge ROS. The results are presented as percentage reduction of ROS relative to the level generated following UVA/UVB exposure of unprotected skin.
The subject of data set [2] is human skin explants. The data set can be described thus: Intracellular ROS scavenging activity assay, solar simulated UVA/UVB exposure. It is filed as cell-based. As for the experimental part:
Intracellular Reactive Oxygen Species (ROS) Scavenging Activity Assays were conducted on human skin explants from donors of skin Phototype II. The skin explants were treated with, a non-fluorescent probe, 2′, 7′-Dichlorofluorescein diacetate (DCFHDA). After treatment, the skin explants were treated with the moisturizer compositions at a dose of 2 mg/cm^2 and exposed to solar simulated UVA/UVB at doses of 70 mJ/cm^2 in triplicate. DCFH-DA is taken up by cells by passive diffusion and DCFH-DA is deacetylated by cellular esterases to non-fluorescent DCFH, which is trapped within cells. The fluorescent 2′, 7′-dichlorofluorescein (DCF) is generated upon enzymatic reduction and subsequent oxidation by ROS. Fluorescence was measured and correlates to the test item's ability to scavenge ROS. The results are presented as percentage reduction of ROS relative to the level generated following UVA/UVB exposure of unprotected skin. The results of these studies are shown in the Table below and presented as percentage reduction in intracellular ROS relative to unprotected skin. […] These associated skin protective effects include but are not limited to suppressing lipid peroxidation in the skin, preventing or reducing the appearance of lines and wrinkles in skin, preventing loss of elasticity of skin, preventing thinning of skin, and preventing pigment darkening of skin.

The conditions of data set [3]: cited from earlier work.

On to `Cc1c(C)c2c(c(C)c1O)CCC(C)(CCCC(C)CCCC(C)CCCC(C)C)O2` (racemic) [DL-alpha-tocopherol], for which the “reduction in ROS, result in words” value with human skin explants [1] is “no statistically significant reduction in ROS”; with human skin explants [2], “statistically significant reduction in ROS”.
Take `C[C@@H]1O[C@@H](OC[C@H]2O[C@@H](Oc3c(-c4ccc(O)c(O)c4)oc4cc(O)cc(O)c4c3=O)[C@H](O)[C@@H](O)[C@@H]2O)[C@H](O)[C@H](O)[C@H]1O` [Rutin, quercetin-3-O-rutinoside]: the “solubility in bulk oils, such as soybean oil” value in data set [3] is given as 0.1 % by weigh.

The values are drawn from patent US12485075B2, “Particulates of polyphenolics and dispersions thereof” (priority 2020, dated 2025).
